{"source": "patent US12053441B2", "about": "“Formulations for improving the delivery of hydrophobic agents” (THE ROYAL INSTITUTION FOR THE ADVANCEMENT OF LEARNING / …, priority 2018, dated 2024)", "note": "Counter-ions that a name gives are not always drawn.", "data": [{"system": "UQ-deficient cells (Mclk1 KO or DKO cells)", "test": "Screening for compounds that increase survival or respiration of UQ-deficient cells", "assay_type": "cell-based, mouse", "conditions": "not given", "excerpt": "(§1) Four different screening methods were developed. The screening methods 1 to 3 are based on rescue-of-lethality in glucose-free galactose-containing media. The presence of galactose instead of glucose forces the cells to rely on oxidative phosphorylation for energy production. Screening method 4 is based on rescue of respiration, implying that processes immediately dependent on UQ have been rescued. Libraries of small molecules were screened for compounds and/or agents that increase survival of UQ-deficient cells (e.g., Mclk1 KO or DKO cells) in standard or modified galactose media depending on the screen settings.\n(§2) The screen uses cells lacking UQ (e.g., Mclk1 KO cells) and consists of three key steps: • 1) Day 0: preparation of Mclk1 KO cells in 96-well plates in standard (glucose-containing) culture medium. • 2) Day 1: changing to glucose-free galactose-containing medium and adding compounds to be screened at a concentration of approximately 10 μM. • 3) Day 4 to 6: following 3 to 5 days of incubation with the compound to be screened, media were removed and cell viability was assayed by resazurin reduction assay.\n(§3) The screen also uses cells lacking UQ biosynthesis (e.g., DKO cells) and its protocol is essentially the same as the galactose-only screen except that in step 2, a minimal amount of UQ10 is added into the galactose screening media at a concentration at which the added UQ10 is insufficient by itself to support survival.\n(§4) The screen uses Mclk1 SKO cells and its protocol is essentially the same as the galactose-only screen except that in step 2, the screening medium is added with 2,4-DHB at a concentration that allows the KO cells to restore some UQ biosynthetic ability but not sufficiently to allow for a level of UQ production that is sufficient for respiration-dependent growth. Thus, under these conditions a compound that can boost the overall level of UQ biosynthesis might allow the cells to make enough UQ to survive in a respiration-dependent medium. Such a screen can identify compounds that boost UQ biosynthesis at any level, including at the level of gene expression.\n(§5) This screening approach aims to directly identify compounds that can boost mitochondrial respiratory chain activity in respiration-deficient cells. […] For this, cells were seeded into XF24 V7 culture plates and treated with testing compounds for 1 to 2 days before a treatment effect on cellular respiration is measured using the Seahorse XF-24e Flux Analyzer. The XF assay was the same as above described except galactose (10 mM) rather glucose was used as the sugar source to increase respiration rate and thus assay sensitivity.", "values": [{"molecule": "CC1=C(CC(=O)O)c2cc(F)ccc2/C1=C\\c1ccc([S+](C)[O-])cc1", "note": "(stereo not drawn) [sulindac]", "identified by the screening methods as useful for UQ deficiency": "identified"}, {"molecule": "CC1(C)O[C@@H]2C[C@H]3[C@@H]4CCC5=CC(=O)C=C[C@]5(C)[C@H]4[C@@H](O)C[C@]3(C)[C@]2(C(=O)CO)O1", "note": "[desonide]", "identified by the screening methods as useful for UQ deficiency": "identified"}, {"molecule": "CC(=O)OCC(=O)[C@@]1(O)CC[C@H]2[C@@H]3CCC4=CC(=O)C=C[C@]4(C)[C@@]3(Cl)[C@@H](Cl)C[C@@]21C", "note": "[dichlorisone acetate]", "identified by the screening methods as useful for UQ deficiency": "identified"}, {"molecule": "C[C@]12C=CC(=O)C=C1CC[C@@H]1[C@@H]2[C@@H](O)C[C@@]2(C)[C@H]1CC[C@]2(O)C(=O)CO", "note": "[prednisolone]", "identified by the screening methods as useful for UQ deficiency": "identified"}, {"molecule": "CC1(C)O[C@@H]2C[C@H]3[C@@H]4CCC5=CC(=O)CC[C@]5(C)[C@@]4(F)[C@@H](O)C[C@]3(C)[C@]2(C(=O)CCl)O1", "note": "[halcinonide]", "identified by the screening methods as useful for UQ deficiency": "identified"}, {"molecule": "CC(C)C[C@H](NC(=O)CNC(=O)c1cc(Cl)ccc1Cl)B(O)O", "note": "[MLN2238]", "identified by the screening methods as useful for UQ deficiency": "identified"}, {"molecule": "Nc1nc(N)c2nc(-c3cccc(O)c3)cnc2n1", "note": "[TG100713]", "identified by the screening methods as useful for UQ deficiency": "identified"}, {"molecule": "CS(=O)(=O)N1CCc2c(-c3cnc(N)nc3)nc(N3CCOCC3)nc21", "note": "[CH5132799]", "identified by the screening methods as useful for UQ deficiency": "identified"}, {"molecule": "CCOC(=O)O[C@]1(C(=O)OCCl)CC[C@H]2[C@@H]3CCC4=CC(=O)C=C[C@]4(C)[C@H]3[C@@H](O)C[C@@]21C", "note": "[ioteprednol etabonate]", "identified by the screening methods as useful for UQ deficiency": "identified"}, {"molecule": "CC1(C)CCC(CN2CCN(c3ccc(C(=O)NS(=O)(=O)c4ccc(NCC5CCOCC5)c([N+](=O)[O-])c4)c(Oc4cnc5[nH]ccc5c4)c3)CC2)=C(c2ccc(Cl)cc2)C1", "note": "[ABT-199]", "identified by the screening methods as useful for UQ deficiency": "identified"}, {"molecule": "CNC(=O)Nc1ccc(-c2nc(N3CC4CCC(C3)O4)c3cnn(C4CCC5(CC4)OCCO5)c3n2)cc1", "note": "[WYE-125132]", "identified by the screening methods as useful for UQ deficiency": "identified"}, {"molecule": "CC(=O)O[C@]1(C(C)=O)CC[C@H]2[C@@H]3C[C@H](C)C4=CC(=O)C=C[C@]4(C)[C@@]3(F)[C@@H](O)C[C@@]21C", "note": "[fluorometholone acetate]", "identified by the screening methods as useful for UQ deficiency": "identified"}, {"molecule": "CCC(=O)OCC(=O)[C@@]1(OC(=O)CC)[C@@H](C)C[C@H]2[C@@H]3CCC4=CC(=O)C=C[C@]4(C)[C@@]3(F)[C@@H](O)C[C@@]21C", "note": "[betamethasone dipropionate]", "identified by the screening methods as useful for UQ deficiency": "identified"}, {"molecule": "C[C@H]1c2cccc(O)c2C(=O)C2=C(O)[C@]3(O)C(=O)C(C(N)=O)=C(O)[C@@H](N(C)C)[C@@H]3[C@@H](O)[C@@H]21", "note": "[doxycycline HCl]", "identified by the screening methods as useful for UQ deficiency": "identified"}, {"molecule": "C[C@@H]1C[C@H]2[C@@H]3CCC4=CC(=O)C=C[C@]4(C)[C@@]3(Cl)[C@@H](O)C[C@]2(C)[C@@]1(OC(=O)c1ccco1)C(=O)CCl", "note": "[mometasone furoate]", "identified by the screening methods as useful for UQ deficiency": "identified"}, {"molecule": "C[C@@H]1COCCN1c1cc(C2(S(C)(=O)=O)CC2)nc(-c2cccc3[nH]ccc23)n1", "note": "[AZ20]", "identified by the screening methods as useful for UQ deficiency": "identified"}, {"molecule": "CCc1c2c(nc3ccc(OC(=O)N4CCC(N5CCCCC5)CC4)cc13)-c1cc3c(c(=O)n1C2)COC(=O)[C@]3(O)CC", "note": "[irinotecan]", "identified by the screening methods as useful for UQ deficiency": "identified"}, {"molecule": "CNC(=O)c1cccc(-c2ccc3c(N4CCOC[C@@H]4C)nc(N4CCOC[C@@H]4C)nc3n2)c1", "note": "[AZD2014]", "identified by the screening methods as useful for UQ deficiency": "identified"}, {"molecule": "Caspofungin acetate", "identified by the screening methods as useful for UQ deficiency": "identified"}, {"molecule": "COc1cc2c(cc1Cc1cccc(Cl)c1F)c(=O)c(C(=O)O)cn2[C@H](CO)C(C)C", "note": "[elvitegravir]", "identified by the screening methods as useful for UQ deficiency": "identified"}, {"molecule": "CC(=O)OCC(=O)[C@@]1(O)CC[C@H]2[C@@H]3CCC4=CC(=O)C=C[C@]4(C)[C@H]3[C@@H](O)C[C@@]21C", "note": "[prednisolone acetate]", "identified by the screening methods as useful for UQ deficiency": "identified"}, {"molecule": "CCc1c2c(nc3ccc(O)cc13)-c1cc3c(c(=O)n1C2)COC(=O)[C@]3(O)CC", "note": "[SN-38]", "identified by the screening methods as useful for UQ deficiency": "identified"}, {"molecule": "C[C@]12CCC(=O)C=C1CC[C@@H]1[C@@H]2[C@@H](O)C[C@@]2(C)[C@H]1CC[C@]2(O)C(=O)CO", "note": "[hydrocortisone]", "identified by the screening methods as useful for UQ deficiency": "identified"}, {"molecule": "CC1(C)O[C@@H]2C[C@H]3[C@@H]4C[C@H](F)C5=CC(=O)C=C[C@]5(C)[C@@]4(F)[C@@H](O)C[C@]3(C)[C@]2(C(=O)CO)O1", "note": "[fluocinolone acetonide]", "identified by the screening methods as useful for UQ deficiency": "identified"}, {"molecule": "CC(=O)OCC(=O)[C@@]12N=C(C)O[C@@H]1C[C@H]1[C@@H]3CCC4=CC(=O)C=C[C@]4(C)[C@H]3[C@@H](O)C[C@@]12C", "note": "[deflazacort]", "identified by the screening methods as useful for UQ deficiency": "identified"}, {"molecule": "CNC1CCCN(c2c(F)cc3c(=O)c(C(=O)O)cn(C4CC4)c3c2OC)C1", "note": "(stereo not drawn) [balofloxacin]", "identified by the screening methods as useful for UQ deficiency": "identified"}, {"molecule": "CC(C)n1nc(-c2cc3cc(O)ccc3[nH]2)c2c(N)ncnc21", "note": "[PP242]", "identified by the screening methods as useful for UQ deficiency": "identified"}, {"molecule": "CCC(=O)O[C@]1(C(=O)SCF)[C@H](C)C[C@H]2[C@@H]3C[C@H](F)C4=CC(=O)C=C[C@]4(C)[C@@]3(F)[C@@H](O)C[C@@]21C", "note": "[fluticasone propionate]", "identified by the screening methods as useful for UQ deficiency": "identified"}, {"molecule": "CCCCC(=O)O[C@]1(C(=O)CO)[C@@H](C)C[C@H]2[C@@H]3CCC4=CC(=O)C=C[C@]4(C)[C@@]3(F)[C@@H](O)C[C@@]21C", "note": "[betamethasone valerate]", "identified by the screening methods as useful for UQ deficiency": "identified"}, {"molecule": "C[C@]12C=CC(=O)C=C1CC[C@H]1[C@@H]3C[C@@H](O)[C@](O)(C(=O)CO)[C@@]3(C)C[C@H](O)[C@@]12F", "note": "[triamcinolone]", "identified by the screening methods as useful for UQ deficiency": "identified"}, {"molecule": "Nc1cc(C(F)(F)F)c(-c2cc(N3CCOCC3)nc(N3CCOCC3)n2)cn1", "note": "[BKM120, buparlisib]", "identified by the screening methods as useful for UQ deficiency": "identified"}]}, {"system": "UQ-deficient cells (Mclk1 KO or DKO cells)", "test": "Screening for compounds that increase survival or respiration of UQ-deficient cells", "assay_type": "cell-based, mouse", "conditions": "DKO cells, minimal UQ10 added", "excerpt": "as §1, §2, §3, §4, §5", "values": [{"molecule": "Caspofungin acetate", "hit in the UQ supplementation screen (method 2)": "one of the hits"}]}, {"system": "not given", "test": "not given", "conditions": "cited from earlier work", "values": [{"molecule": "CO[C@H]1C[C@@H]2CC[C@@H](C)[C@@](O)(O2)C(=O)C(=O)N2CCCC[C@H]2C(=O)O[C@H]([C@H](C)C[C@@H]2CC[C@@H](OC(=O)C(C)(CO)CO)[C@H](OC)C2)CC(=O)[C@H](C)/C=C(\\C)[C@@H](O)[C@@H](OC)C(=O)[C@H](C)C[C@H](C)/C=C/C=C/C=C/1C", "note": "[temsirolimus]", "solubility in water": "20 µg/mL"}, {"molecule": "COc1cc([C@@H]2c3cc4c(cc3[C@@H](O[C@@H]3O[C@@H]5CO[C@@H](c6cccs6)O[C@H]5[C@H](O)[C@H]3O)[C@H]3COC(=O)[C@H]23)OCO4)cc(OC)c1O", "note": "[teniposide]", "solubility in water": "59.8 µg/mL"}, {"molecule": "O=C(O)c1ccccc1Nc1cccc(C(F)(F)F)c1", "note": "[flufenamic acid]", "solubility in water": "9.09 µg/mL"}, {"molecule": "O=C(O)COC(=O)Cc1ccccc1Nc1c(Cl)cccc1Cl", "note": "[aceclofenac]", "solubility in water": "insoluble"}, {"molecule": "COc1cc([C@@H]2c3cc4c(cc3[C@@H](O[C@@H]3O[C@@H]5CO[C@@H](C)O[C@H]5[C@H](O)[C@H]3O)[C@H]3COC(=O)[C@H]23)OCO4)cc(OC)c1O", "note": "[etoposide]", "solubility in water": "200 µg/mL"}, {"molecule": "O=c1cc(-c2ccc(O)c(O)c2)oc2cc(O)cc(O)c12", "note": "[luteolin]", "solubility in water": "5.72 µg/mL"}, {"molecule": "C=CCNC1=C2C[C@@H](C)C[C@H](OC)[C@H](O)[C@@H](C)/C=C(\\C)[C@H](OC(N)=O)[C@@H](OC)/C=C\\C=C(/C)C(=O)NC(=CC1=O)C2=O", "note": "[17-AAG]", "solubility in water": "100 µg/mL"}, {"molecule": "CC(=O)O[C@@]12CO[C@@H]1C[C@H](O)[C@@]1(C)C(=O)[C@H](O)C3=C(C)[C@@H](OC(=O)[C@H](O)[C@@H](NC(=O)OC(C)(C)C)c4ccccc4)C[C@@](O)([C@@H](OC(=O)c4ccccc4)[C@H]21)C3(C)C", "note": "[docetaxel]", "solubility in water": "4.93 µg/mL"}, {"molecule": "CCCC1O[C@@H]2C[C@H]3[C@@H]4CCC5=CC(=O)C=C[C@]5(C)[C@H]4[C@@H](O)C[C@]3(C)[C@]2(C(=O)CO)O1", "note": "(stereo partly drawn) [budesonide]", "solubility in water": "10.7 mg/1"}, {"molecule": "Nc1nc2c(ncn2COCCO)c(=O)[nH]1", "note": "[acyclovir]", "solubility in water": "< 2500 µg/mL"}]}]}
